Measured values taken from patent US6737383B1, “Herbicidal oxadiazolidines” (priority 1999, dated 2004).

Key:
[1] = test system: duck salad; test: Test B flood test duck salad; assay type: in vivo, Heteranthera limosa
In short: (§1)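 Flood test on plants grown to the 2-leaf stage; treated plants kept in greenhouse twelve to sixteen days, then visually rated against controls on a 0 (no effect) to 10 (complete control) scale.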

[2] = test system: rice; test: Test B flood test rice; assay type: in vivo, Oryza sativa
In short: as §1

[3] = test system: bamyardgrass; test: Test B flood test barnyardgrass; assay type: in vivo, Echinochloa crus-galli
In short: as §1

[4] = test system: smallflower flatsedge; test: Test B flood test smallflower flatsedge; assay type: in vivo, Cyperus difformis
In short: as §1

[5] = Rate 62 g/ha, flood test species, Pre-emergence, visual evaluation after twelve to sixteen days
[6] = Rate 125 g/ha, Pre-emergence section (flood test species), scale 0 to 10, 0 no effect, 10 complete control
[7] = Rate 250 g/ha, Pre-emergence (flood test species), scale 0 to 10, 0 is no effect, 10 is complete control
[8] = Rate 500 g/ha, Pre-emergence section of Table B, 0 to 10 scale (0 no effect, 10 complete control)

CC(C)N(C(=O)n1oc(=O)n(C(C)C(=O)N2CCOCC2)c1=O)c1ccc(F)cc1 (stereo not shown) [Compound 705]
Plant response rating, Ducksalad (0 to 10 scale, 0 is no effect, 10 is complete control) [1, 5]: 0
Ducksalad plant response rating [1, 6]: 0
Ducksalad plant response rating [1, 7]: 0
Ducksalad plant response rating [1, 8]: 0
Plant response rating, Rice (0 to 10 scale, 0 is no effect, 10 is complete control) [2, 5]: 0
Rice plant response rating [2, 6]: 1
Rice plant response rating [2, 7]: 2
Rice plant response rating [2, 8]: 2
Plant response rating, Barnyardgrass (0 to 10 scale, 0 is no effect, 10 is complete control) [3, 5]: 0
Barnyardgrass plant response rating [3, 6]: 0
Barnyardgrass plant response rating [3, 7]: 2
Barnyardgrass plant response rating [3, 8]: 2
Plant response rating, S. Flatsedge (0 to 10 scale, 0 is no effect, 10 is complete control) [4, 5]: 0
S. Flatsedge plant response rating [4, 6]: 0
S. Flatsedge plant response rating [4, 7]: 0
S. Flatsedge plant response rating [4, 8]: 0
